Results taken from PubChem BioAssay (NCI).
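Assay format: 96-well plates, 48-hour exposure. The concentration for full growth arrest is given as TGI.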 Where a SMILES comes first, the peptide text is derived from it. The star is where a group is joined. Boc = CC(C)(C)OC(=O)*

Experiments:
Experiment in all cases: inhibition of tumour cell growth, NCI panel, 48 h
A498 renal = test system: A498 renal
COLO 205 colon = test system: COLO 205 colon
HCT-15 colon = test system: HCT-15 colon
K-562 leukemia = test system: K-562 leukemia
MDA-MB-435 = test system: MDA-MB-435
NCI-H226 lung = test system: NCI-H226 lung
NCI-H23 lung = test system: NCI-H23 lung
SF-295 CNS = test system: SF-295 CNS
SN12C renal = test system: SN12C renal
HL-60(TB) leukemia = test system: HL-60(TB) leukemia

SMILES | TGI (A498 renal) | TGI (COLO 205 colon) | TGI (HCT-15 colon) | TGI (K-562 leukemia) | TGI (MDA-MB-435) | TGI (NCI-H226 lung) | TGI (NCI-H23 lung) | TGI (SF-295 CNS) | TGI (SN12C renal) | TGI (HL-60(TB) leukemia)
O=C(CSC1=NCCN1)c1ccccc1 | > 100 µM | > 100 µM | > 100 µM | > 100 µM | > 100 µM | > 100 µM | > 100 µM | > 100 µM | > 100 µM | –
CCCc1ccc(N=Cc2cc(OC)c(OC)c(OC)c2)cc1 | > 100 µM | > 31.6 µM | > 54.6 µM | > 72.6 µM | – | > 100 µM | > 100 µM | > 100 µM | > 100 µM | > 67.5 µM
Nc1cc(CO)cc(Nc2c3ccccc3nc3occc23)c1 | > 100 µM | 85.7 µM | > 100 µM | – | 41.9 µM | > 100 µM | 71.7 µM | > 100 µM | > 100 µM | 74.4 µM
Cc1nnc2c3c(-c4ccccc4)c(-c4ccccc4)oc3nc(N(C)C)n12 | > 100 µM | > 100 µM | > 100 µM | > 100 µM | > 100 µM | > 100 µM | > 100 µM | > 100 µM | – | 46.9 µM
COc1nc2c(c(=O)n1C)N[C@@H]1[C@@H](O)[C@H](O)CO[C@@H]1N2 | > 100 µM | > 100 µM | > 100 µM | > 100 µM | > 100 µM | > 100 µM | – | > 100 µM | > 100 µM | > 100 µM
CC(NC(=O)C(NC(=O)OC(C)(C)C)C(C)C)C(=O)NCC(=O)O (stereo not drawn) (Boc-Val-Ala-Gly-OH; configuration not given here) | – | > 100 µM | > 100 µM | > 100 µM | > 100 µM | – | > 100 µM | > 100 µM | > 100 µM | –
CC1CC[C@]2(C(=O)O)CCC3(C)C(=C2[C@H]1C)C=CC1[C@@]2(C)CC[C@H](O)C(C)(C)C2CC[C@]13C (stereo partly drawn) | – | > 100 µM | > 100 µM | > 100 µM | > 100 µM | > 100 µM | > 100 µM | 47 µM | > 100 µM | > 100 µM
CC(NC(=O)c1ccc(OP(=O)(OCC2=CC(=O)c3ccccc3C2=O)N(C)CCCCCl)cc1)c1ccc(OCC2CCCCC2)c(C(N)=O)c1 (stereo not drawn) | – | 20.6 µM | 24.7 µM | 43.1 µM | 5.68 µM | 24.2 µM | 10.2 µM | 19.2 µM | 26.2 µM | 41.1 µM
COc1cc(C(C#N)NNC(=O)c2ccccc2O)ccc1O (stereo not drawn) | – | > 100 µM | > 100 µM | > 100 µM | – | 38 µM | 10.4 µM | > 100 µM | > 100 µM | 19.4 µM
CC1=C(C#N)S(=O)(=O)c2c(oc(C)c2C)N1 | > 100 µM | – | > 100 µM | > 100 µM | > 100 µM | > 100 µM | > 100 µM | > 100 µM | > 100 µM | –
CCCCNC(=S)Nc1nc(C(=O)NNS(=O)(=O)c2ccccc2)cs1 | > 100 µM | 38.6 µM | > 100 µM | > 100 µM | 48.4 µM | – | > 100 µM | > 100 µM | 62.5 µM | –
CC1=C2N3C[C@@H](n4c(=O)n(C)c(=O)n43)C23CCC1n1c(=O)n(C)c(=O)n13 | > 100 µM | > 100 µM | 52.8 µM | > 100 µM | – | > 100 µM | > 100 µM | > 100 µM | > 100 µM | > 100 µM
